Data: patent publication US20260263413A1 (priority 2019, published 2026)

Assays:
[1] = background statement, ref. [31]; cited from earlier work
[2] = Pharmacokinetic (PK) data from oral administration of DHM in enteric capsules, with or without sodium caprate; format: in vivo, Sprague-Dawley rats; conditions: Sprague-Dawley, rat, blood; for Tmax / AUC / Cmax: po; for AUC: DHM AUC; for Cmax: DHM Cmax
in vivo = conditions: Sprague-Dawley, rat, 1.3 mg/kg
Protocol: A pharmacokinetic study can be carried out to evaluate animal pharmacokinetics.
A blood sample was collected from each rat at predetermined times and analyzed with LC-MS/MS. […] Error bars for each point in time based on the results for each of the rats in the set are shown. […] Bioavailability (Fabs) was calculated as
where AUCoral and Doral indicate the AUC and dosage for a given oral administration, and AUCIV and Div indicate the AUC and dosage for the intravenous (IV) administration set forth in Example 1, above.
Error bars for each point in time based on the results for each of the rats in the set are shown.

[3] = Pharmacokinetic (PK) data from intravenous (IV) administration of DHM, blood samples analysed by LC-MS/MS; format: in vivo, Sprague-Dawley rats; conditions: Sprague-Dawley, rat, 1 mg/kg
Protocol: The DUNHM was administered in an 0.9% saline solution. No sodium caprate (sodium decanoate, Na caprate) was administered.

[4] = 1.1 mg/kg, 73.1±1.1 mg/kg crystalline DHM, enteric capsules (Eudragit L100-55 coated), Na caprate:DHM 0:1, FIG. 3A
[5] = 70.6±2.7 mg/kg crystalline DHM, enteric capsules, sodium caprate approx. 141.2 mg/kg (2:1), FIG. 3D
[6] = 75.5±2.0 mg/kg crystalline DHM, enteric capsules, sodium caprate approx. 75.5 mg/kg (1:1), FIG. 3C
[7] = 92.6±3.0 mg/kg crystalline DHM, enteric capsules, sodium caprate approx. 23.2 mg/kg (1:4), FIG. 3B

O=C1c2c(O)cc(O)cc2O[C@H](c2cc(O)c(O)c(O)c2)[C@H]1O [DHM, dihydromyricetin]
oral bioavailability [1]: less than 5%
bioavailability ([2]; 1.1 mg/kg): 19.5 ± 9.5%
Tmax [2, 4]: 5.4 ± 2.6 h
AUC [2, 4]: 167 ± 83.3 ng·h/mL
Cmax [2, 4]: 27.9 ± 1.5 ng/mL
Tmax [2, 5]: 4 h
Tmax [2, 6]: 4 h
Tmax [2, 7]: 6 h
AUC [2, 5]: 431 ± 101 ng·h/mL
AUC [2, 6]: 284 ± 20.1 ng·h/mL
AUC [2, 7]: 222 ± 44.3 ng·h/mL
Cmax [2, 5]: 70.2 ± 6.5 ng/mL
Cmax [2, 6]: 62.3 ± 4.3 ng/mL
Cmax [2, 7]: 52.7 ± 3.6 ng/mL
bioavailability (in vivo; DHM Bioavailability (Fabs)): 34.1 ± 12.7%
AUC (in vivo; po, DHM AUC): 314 ± 115 ng·h/mL
Cmax (in vivo; po, DHM Cmax): 46.2 ± 4 ng/mL
Tmax (in vivo; po, Tmax): 4.7 ± 1.8 h
AUC [3]: 11.6 ± 4.9 ng·h/mL
Cmax [3]: 12.5 ± 0.5 ng/mL
